Tests used:
External panelists = assay: Line scale (15-point sucrose equivalence) sensory test, Example 5, sucrose or LSB, pH 7.1; type: in vivo, Human
Procedure: (§1) Several types of sensory tests were used to determine the efficacy of 3-(4-amino-2,2-dioxide-1H-benzo[c][1,2,6]thiadiazin-5-yloxy)-2′,2′-dimethyl-N-propylpropanamide 3-(4-amino-2,2-dioxide-1H-benzo[c][1,2,6]thiadiazin-5-yloxy)-2′,2′-dimethyl-N-propylpropanamide in enhancing the sweetness of sucrose. Two types of tests were conducted: • 1) Sensory scaling tests were performed using a 15-point percent sucrose equivalence scale for sweetness in order to evaluate sweetness enhancement 3-(4-amino-2,2-dioxide-1H-benzo[c][1,2,6]thiadiazin-5-yloxy)-2′,2′-dimethyl-N-propylpropanamide 3-(4-amino-2,2-dioxide-1H-benzo[c][1,2,6]thiadiazin-5-yloxy)-2′,2′-dimethyl-N-propylpropanamide in sucrose or in fructose. • 2) Paired comparison tests (2-alternative forced choice difference tests) were used to determine sweetness equivalence for solutions of sucrose vs. 3-(4-amino-2,2-dioxide-1H-benzo[c][1,2,6]thiadiazin-5-yloxy)-2′,2′-dimethyl-N-propylpropanamide 3-(4-amino-2,2-dioxide-1H-benzo[c][1,2,6]thiadiazin-5-yloxy)-2′,2′-dimethyl-N-propylpropanamide or buffer vs. 3-(4-amino-2,2-dioxide-1H-benzo[c][1,2,6]thiadiazin-5-yloxy)-2′,2′-dimethyl-N-propylpropanamide 3-(4-amino-2,2-dioxide-1H-benzo[c][1,2,6]thiadiazin-5-yloxy)-2′,2′-dimethyl-N-propylpropanamide. Stimuli:
Tests were performed with sucrose or fructose. The sweetener was evaluated with and/or without 3-(4-amino-2,2-dioxide-1H-benzo[c][1,2,6]thiadiazin-5-yloxy)-2′,2′-dimethyl-N-propylpropanamide 3-(4-amino-2,2-dioxide-1H-benzo[c][1,2,6]thiadiazin-5-yloxy)-2′,2′-dimethyl-N-propylpropanamide at the appropriate concentration(s).
3-(4-amino-2,2-dioxide-1H-benzo[c][1,2,6]thiadiazin-5-yloxy)-2′,2′-dimethyl-N-propylpropanamide was prepared as a concentrated stock solution in ethanol to ensure dissolution of the 3-(4-amino-2,2-dioxide-1H-benzo[c][1,2,6]thiadiazin-5-yloxy)-2′,2′-dimethyl-N-propylpropanamide. Therefore, all taste solutions contained ethanol in the final solution. Samples without 3-(4-amino-2,2-dioxide-1H-benzo[c][1,2,6]thiadiazin-5-yloxy)-2′,2′-dimethyl-N-propylpropanamide also contained an equivalent concentration of ethanol. For samples involving 3-(4-amino-2,2-dioxide-1H-benzo[c][1,2,6]thiadiazin-5-yloxy)-2′,2′-dimethyl-N-propylpropanamide at 5-10 ppm (up to 28 μM), the final concentration of ethanol was 0.2%; 30-40 μM, 0.4% ethanol; 50 μM, 0.5% ethanol; and 100 μM, 1% ethanol.
Taste samples were also prepared in low sodium phosphate buffer (pH 7.1; “LSB”) lacking sucrose to evaluate the taste of 3-(4-amino-2,2-dioxide-1H-benzo[c][1,2,6]thiadiazin-5-yloxy)-2′,2′-dimethyl-N-propylpropanamide alone. Low sodium phosphate buffer consists of 0.3 mM KCl, 0.5 mM Na2HPO4, and 0.175 mM KH2PO4.
In scaling test situations, the samples were rated on a 15-point scale for sweetness, ranging from 0=0% sucrose to 15=15% sucrose. To evaluate attributes other than sweetness, references are used for training and are prepared according to the table below. Note that each reference was given a score of 5 on the 15-point scale.
External panelists were used for the tests. The exact number of panelists is reported with test results. Subjects were instructed not to eat or drink anything (except water) for at least 1 hour prior to the test.
Panelists rinsed their mouths with water prior to starting any test. Samples were presented to panelists in a randomized, counterbalanced order. Panelists rinsed with water and had up to a 1 minute delay to clear the mouth of any tastes after each evaluation. Two replicates of each test were performed, unless otherwise noted.
In scaling tests, panelists rate samples monadically for the attributes listed above (see Stimuli). In paired comparison tests, panelists taste pairs of solutions and indicate which sample is perceived to be sweeter.
Attributes of interest are reported for each scaling taste test.
Panelists rinsed their mouths with water prior to starting any test. Samples were presented to panelists in a randomized, counterbalanced order. […]

Panelists = assay: Paired comparison taste test, Example 7, sucrose or fructose solutions; type: in vivo, Human
Procedure: as §1
Panelists evaluated two solutions in a paired comparison taste test procedure. They were instructed to select the sweeter of the two samples. They were also asked to comment on how difficult it was to tell the difference in sweetness between both samples and if any off tastes were perceived.
Panelists evaluated two solutions in a paired comparison taste test procedure and were instructed to select the sweeter of the two samples.

CCCNC(=O)C(C)(C)COc1cccc2c1C(N)=NS(=O)(=O)N2 [3-(4-amino-2,2-dioxide-1H-benzo[c][1,2,6]thiadiazin-5-yloxy)-2′,2′-dimethyl-N-propylpropanamide] was tested. Which off tastes (External panelists; 25.0 μM (8.9 ppm) compound on its own) did it give?
Its off tastes is “no significant off tastes”.

What about the “Average Sweetness” value (External panelists; 25 μM (8.9 ppm) compound on its own, pH 7, n = 30) of the same compound?
The value was 0.6.

What about the “Sweetness vs sucrose solutions (conclusion)” value (“Sweetness vs sucrose solutions” below) (External panelists; 25.0 μM (8.9 ppm) compound on its own, p>0.10) of the same compound?
The value was “not significantly different in sweetness than 0% sucrose”.

And the “Average Bitterness” value (External panelists; 25 μM compound on its own, n = 30)?
Its value is 0.2.

And the “Average Sweetness” value (External panelists; 50 μM (17.7 ppm) compound on its own in LSB, pH 7.1, n = 14)?
Its value is 1.3.

And the bitter off tastes (External panelists; 50 μM compound in LSB, pH 7.1)?
Its bitter off tastes is “no significant bitter off tastes”.

And the off tastes (External panelists; 50 μM compound on its own in LSB)?
The off tastes was “no significant off tastes”.

And the “Average Bitterness” value (External panelists; 1% Sucrose + 5 ppm (14.11 μM) compound, n = 30)?
The value was 0.4.

What about the “Average Sweetness” value (External panelists; 1% Sucrose + 5 ppm (14.11 μM) compound, pH 7.1, n = 30) of the same compound?
Its value is 2.5.

What about the “Sweetness vs sucrose solutions” value (External panelists; 1% sucrose + 5 ppm compound, p>0.10) of the same compound?
The value was “not significantly different in sweetness than 2% sucrose”.

What about the off tastes (External panelists; 1-10 ppm compound in 6% sucrose, LSB, pH 7.1) of the same compound?
The off tastes was “no significant off tastes”.

And the “Average Sweetness” value (External panelists; 2% Sucrose + 25 μM (8.9 ppm) compound, pH 7.1, n = 28)?
Its value is 5.6.

What about the “Average Bitterness” value (External panelists; 2% Sucrose + 25 μM compound, n = 28) of the same compound?
The value was 0.3.

What about the “Average Bitterness” value (External panelists; 2% Sucrose + 5 ppm (14.11 μM) compound, n = 30) of the same compound?
Its value is 0.2.

And the “Average Sweetness” value (External panelists; 2% Sucrose + 5 ppm (14.11 μM) compound, pH 7.1, n = 30)?
The value was 4.6.

And the “Sweetness vs sucrose solutions” value (External panelists; 2% sucrose + 5 ppm compound)?
The value was “not significantly different in sweetness than 4% sucrose”.

And the “Sweetness vs sucrose solutions” value (External panelists; 2% sucrose + 8.9 ppm compound, p>0.10)?
The value was “not significantly different in sweetness than 6% sucrose”.

What about the “Average Sweetness” value (External panelists; 4% Sucrose + 25 μM (8.9 ppm) compound, pH 7.1, n = 28) of the same compound?
Its value is 8.3.

What about the “Average Bitterness” value (External panelists; 4% Sucrose + 25 μM compound, n = 28) of the same compound?
Its value is 0.3.

And the “Average Bitterness” value (External panelists; 4% Sucrose + 5 ppm (14.11 μM) compound, n = 30)?
The value was 0.2.

What about the “Average Sweetness” value (External panelists; 4% Sucrose + 5 ppm (14.11 μM) compound, pH 7.1, n = 30) of the same compound?
Its value is 8.1.

What about the “Sweetness vs sucrose solutions” value (External panelists; 4% sucrose + 5 ppm compound, p>0.10) of the same compound?
The value was “not significantly different in sweetness than 8% sucrose”.

And the “Sweetness vs sucrose solutions” value (External panelists; 4% sucrose + 8.9 ppm compound, p>0.10)?
The value was “not significantly different in sweetness than 8% sucrose”.

And the off tastes (External panelists; 5 ppm compound in 1-6% sucrose, LSB, pH 7.1)?
Its off tastes is “no significant off tastes”.

What about the “Average Sweetness” value (External panelists; 6% Sucrose + 25 μM (8.9 ppm) compound, pH 7.1, n = 24) of the same compound?
Its value is 10.6.

And the “Sweetness vs sucrose solutions” value (External panelists; 6% Sucrose + 25 μM compound, p>0.10)?
Its value is “not significantly different in sweetness than 10% or 12% sucrose”.

What about the “Average Bitterness” value (External panelists; 6% Sucrose + 25 μM compound, pH 7.1, n = 24) of the same compound?
Its value is 0.1.

And the “Average Sweetness” value (External panelists; 6% Sucrose + 50 μM (17.7 ppm) compound, pH 7.1, n = 15)?
The value was 9.9.

What about the “Sweetness vs sucrose solutions” value (External panelists; 6% Sucrose + 50 μM compound, p>0.10) of the same compound?
The value was “not significantly different in sweetness compared to 10% or 12% Sucrose”.

And the “Average Bitterness” value (External panelists; 6% Sucrose + 50 μM compound, pH 7.1, n = 15)?
The value was 0.2.

What about the “Average Bitterness” value (External panelists; 6% Sucrose + 1 ppm (2.82 μM) compound, n = 30) of the same compound?
Its value is 0.7.

What about the “Average Sweetness” value (External panelists; 6% Sucrose + 1 ppm (2.82 μM) compound, pH 7.1, n = 30) of the same compound?
The value was 7.5.

What about the “Average Bitterness” value (External panelists; 6% Sucrose + 2 ppm (5.64 μM) compound, n = 30) of the same compound?
The value was 0.4.

What about the “Average Sweetness” value (External panelists; 6% Sucrose + 2 ppm (5.64 μM) compound, pH 7.1, n = 30) of the same compound?
The value was 8.0.

What about the “Average Bitterness” value (External panelists; 6% Sucrose + 4 ppm (11.29 μM) compound, n = 30) of the same compound?
Its value is 0.4.

What about the “Average Sweetness” value (External panelists; 6% Sucrose + 4 ppm (11.29 μM) compound, pH 7.1, n = 30) of the same compound?
Its value is 10.1.

What about the “Average Bitterness” value (External panelists; 6% Sucrose + 5 ppm (14.11 μM) compound, n = 30) of the same compound?
The value was 0.4.

What about the “Average Sweetness” value (External panelists; 6% Sucrose + 5 ppm (14.11 μM) compound, pH 7.1, n = 30) of the same compound?
The value was 10.2.

And the “Average Bitterness” value (External panelists; 6% Sucrose + 7 ppm (19.75 μM) compound, n = 30)?
Its value is 0.3.

And the “Average Sweetness” value (External panelists; 6% Sucrose + 7 ppm (19.75 μM) compound, pH 7.1, n = 30)?
The value was 10.3.

What about the “Sweetness vs sucrose solutions” value (External panelists; 6% Sucrose + 7 ppm compound, p>0.10) of the same compound?
The value was “not significantly different than 10% or 12% sucrose”.

And the “Average Bitterness” value (External panelists; 6% Sucrose + 10 ppm (28.22 μM) compound, n = 30)?
Its value is 0.6.

What about the “Average Sweetness” value (External panelists; 6% Sucrose + 10 ppm (28.22 μM) compound, pH 7.1, n = 30) of the same compound?
The value was 10.9.

And the “Sweetness vs sucrose solutions” value (External panelists; 6% Sucrose + 10 ppm compound, p>0.10)?
The value was “not significantly different than 10% or 12% sucrose”.

What about the off tastes (External panelists; 6% sucrose + 25 μM compound) of the same compound?
The off tastes was “no significant off tastes”.

And the “Sweetness vs sucrose solutions” value (External panelists; 6% sucrose + 4 ppm compound, p>0.10)?
The value was “not significantly different than 10% sucrose”.

And the off tastes (External panelists; 8.9 ppm compound in 2-4% sucrose, LSB, pH 7.1)?
Its off tastes is “no significant off tastes”.

What about the “Sample selected as more sweet by panelists, Total” value (Panelists; 28 μM (9.9 ppm) compound chosen, vs 1% Sucrose, n = 32) of the same compound?
Its value is 4.

What about the “Sweetness comparison (conclusion)” value (Panelists; 28 μM compound vs 1% sucrose) of the same compound?
The value was 1% sucrose was significantly sweeter.

What about the “Sample selected as sweeter by panelists, Test 1” value (Panelists; 6% Fructose + 25 μM (8.9 ppm) compound chosen, vs 6% Fructose, N = 25) of the same compound?
The value was 20.

What about the “Sample selected as more sweet by panelists, Test 1” value (Panelists; 6% Fructose + 25 μM (8.9 ppm) compound chosen, vs 7% Fructose, N = 25) of the same compound?
The value was 12.

And the “Sweetness comparison (conclusion)” value (Panelists; 6% fructose + 25 μM compound vs 6% fructose, p<0.05)?
The value was “significantly sweeter than 6% fructose”.

What about the “Sweetness comparison (conclusion)” value (Panelists; 6% fructose + 25 μM compound vs 7% fructose) of the same compound?
Its value is “no significant difference in sweetness”.

From patent publication US8609173B2, “Compositions comprising sweetness enhancers and methods of making them” (Senomyx Inc., priority 2008, dated 2013)
